Literature values, collected in patent publication US20040067256A1, “Novel modified release formulation” (priority 2001, published 2004).
Read-outs that look alike come from different tables or passages of the source.

Settings: ambient temperature of 22-25° C.

CC(O)(CS(=O)(=O)c1ccc(F)cc1)C(=O)Nc1ccc(C#N)c(C(F)(F)F)c1 (racemic) [bicalutamide, 4′-cyano-α′,α′,α′-trifluoro-3-(4-fluorophenylsulphonyl)-2-hydroxy-2-methylpropiono-m-toluidide]
water-solubility (physiological pH): about 0.0046 mg/ml

CCOC(=O)C1=C(C)NC(C)=C(C(=O)OC)C1c1cccc(Cl)c1Cl (centres unmarked) [Felodipine, 2,6-dimethyl-4-(2,3-dichlorophenyl)-1,4-dihydropyridine-3,5-dicarboxylic acid-3-methyl ester-5-ethyl ester]
water-solubility: about 0.5 μg/ml
